How the values were obtained:
[1] = system: C57BL/6 mouse irradiated with 7.5 Gy gamma radiation; assay: Hair regrowth in an irradiated mouse (Example 1); format: in vivo; conditions: 12 days of treatment, FIG. 1A, untreated control showed no new growth hair
Excerpt: FIG. 1A. A C57BL/6 mouse irradiated with 7.5 Gy gamma radiation on Sep. 24, 2003 and given 12 days of [Sar, Met(02)^11]-substance P (Homspera™) treatment.
FIG. 1B. A C57BL/6 mouse irradiated with 7.5 Gy gamma radiation on Sep. 24, 2003 and given no Homspera™ treatment.
A C57BL/6 mouse was irradiated with 7.5 Gy gamma radiation on Sep. 24, 2003 and given 12 days of [Sar, Met(02)^11]-substance P (Homspera™) treatment. […] As a control, a C57BL/was 6 mouse irradiated with 7.5 Gy gamma radiation on Sep. 24, 2003 and given no Homspera™ treatment. No new growth hair was observed.

[2] = system: C57BL/6 mice given Cobalt 60 gamma radiation; assay: Restoration of radiation-induced hair loss in mice, aerosol treatment (Example 2); format: in vivo, mouse; conditions: mice pre-exposed to 5 Gy or 2.5 Gy, then 10 Gy at day 75; hair loss over approximately 20% of body; one micromolar by aerosol 15 min/day, 9 days of treatment
Experimental: C57BL/6 mice were given a Cobalt 60 gamma radiation treatment on Sep. 24, 2002 of either 10 Gy, 7.5 Gy, 5 Gy, or 2.5 Gy. The 10 Gy mice died at an average of 11.3 days after the radiation exposure. All of the other mice in the other radiation exposure groups survived at least until Dec. 18, 2002. At 75 days after the initial radiation exposure, the 5 Gy and 2.5 Gy mice were administered a 10 Gy dose of Cobalt 60 gamma radiation. On the day of the second 10 Gy radiation exposure, it was noted that the 5 Gy and 2.5 Gy mice had hair loss over approximately 20% of their body with the most significant hair loss in their leg areas and around their ears. Half of the 5 Gy and 2.5 Gy (N=10) mice were administered a one micromolar Homspera™ dose by aerosol for 15 min/day beginning the day of the 10 Gy radiation exposure.

[3] = system: C57BL/6 mice, lethal dose of gamma radiation (7.75 Gy); assay: Hair retention and immune status after a lethal dose of gamma radiation (Example 3); format: in vivo, mouse; conditions: for hair retention: photographed at Day +56 and Day +90 after radiation
Excerpt: FIG. 2A. Group 1 (90 day treatment of Homspera™) mice photographed at day 56 after radiation.
FIG. 2B. Group 2 (35 day treatment of Homspera™) mice photographed at day 56 after radiation.
FIG. 2C. Group 1 (90 day treatment of Homspera™) mice photographed at day 90 after radiation.
FIG. 2D. Group 2 (35 day treatment of Homspera™) mice photographed at day 90 after radiation.
C57BL/6 mice were divided into three groups. Groups 1 and 2 underwent a lethal dose of gammna radiation (7.75 Gy) on July 11th. Group 1 mice were treated with Homspera™ (50 micromolar for 35 days and then a maintenance dose of 10 micromolar until +90 days), and then they were killed at +90 days post-lethal radiation (October 9th). Their immune system status was normal compared to control mice (Group 3) that had not been treated with radiation and had not been treated with Homspera™. Group 2 mice received Homspera™ treatment for 35 days after radiation, and then the Homspera™ treatment was completely stopped.
There are two sets of pictures of the Group 1 and Group 2 mice: one set of pictures taken on September 5th at Day +56 after radiation (FIGS. 2A and 2B), and the other on October 9th at Day +90 after radiation (FIGS. 2C and 2D).

[Sar, Met(02)^11]-substance P [Homspera™]
new hair growth [1]: New growth (black) hair was observed | restoration of hair loss [2]: restored their hair loss | hair retention ([3]; Group 1: 7.75 Gy, 90 day treatment): retained their hair | immune system status ([3]; Group 1: 7.75 Gy, 50 micromolar for 35 days, then 10 micromolar until +90 days, at +90 days, compared to untreated non-irradiated control mice (Group 3)): normal | hair retention ([3]; Group 2: 7.75 Gy, 35 day treatment then stopped): retained their hair

Reference: patent US20060153789A1, “Stimulation of hair regrowth” (priority 2002, published 2006)
